Data as given in publication PMC6920566 (Journal of molecular biology, 2019).

Test system: MDA-MB-231 cells
Experiment: Fluorescence microscopy of A488-pHLIP cellular interaction
Assay type: cell-based, human

Substance: H2N-GCEQNPIYWARYADWLF-TTPLLLLDLALLVDADEGTG-CONH2 [A488-pHLIP]
- A488 fluorescence of cells (microscopy) (pH 5.0, absence of divalent cations): large increase in A488 fluorescence intensity
- A488 fluorescence of cells (microscopy) (pH 7.4, 1.8 mM Ca2+): significant increase in A488 fluorescence intensity
- A488 fluorescence of cells (microscopy) (pH 7.4, absence of divalent cations, washed before imaging): No significant fluorescence
